In general, pIC50 refers to −log10 of the IC50, conventionally taken in molar units. Low readings indicate a high IC50, high ones a low IC50. One may read the solubility as the dissolved amount per volume that the medium holds.

This note sets out measurements from ChEMBL document CHEMBL3352479, “Discovery and SAR study of 2-(4-pyridylamino)thieno[3,2-d]pyrimidin-4(3H)-ones as soluble and highly potent PDE7 inhibitors” (Bioorg Med Chem Lett, 2015).

Data set [1] addresses High affinity 3',5'-cyclic-AMP phosphodiesterase 7A (Homo sapiens, UniProt Q13946). Kind of data set: Inhibition of PDE7A (unknown origin).
Data set [2] in a line: Solubility in phosphate buffer at pH 6.8. The class given is physicochemical.
In data set [3] the target is 3',5'-cyclic-AMP phosphodiesterase 4B (Homo sapiens, UniProt Q07343). As to the kind of experiment: Inhibition of PDE4B (unknown origin).
For data set [4], the target named is cGMP-specific 3',5'-cyclic phosphodiesterase (Homo sapiens, UniProt O76074). Kind of data set: Inhibition of PDE5A (unknown origin).
Data set [5] addresses cGMP-inhibited 3',5'-cyclic phosphodiesterase 3A (Homo sapiens, UniProt Q14432). As to the kind of experiment: Inhibition of PDE3A (unknown origin).
For another data set, the system named is Lymphocyte. As to the kind of experiment: Inhibition of IL2 production from mouse activated lymphocytes. Type of data set: functional, cell-based.

pIC50: −log10 of the molar value. In brackets after ≈: the same amount, converted by molar mass. Where only a bound is given, the exact number is not on record here.

3',5'-cyclic-AMP phosphodiesterase 4B, sequence (Q07343 whole entry): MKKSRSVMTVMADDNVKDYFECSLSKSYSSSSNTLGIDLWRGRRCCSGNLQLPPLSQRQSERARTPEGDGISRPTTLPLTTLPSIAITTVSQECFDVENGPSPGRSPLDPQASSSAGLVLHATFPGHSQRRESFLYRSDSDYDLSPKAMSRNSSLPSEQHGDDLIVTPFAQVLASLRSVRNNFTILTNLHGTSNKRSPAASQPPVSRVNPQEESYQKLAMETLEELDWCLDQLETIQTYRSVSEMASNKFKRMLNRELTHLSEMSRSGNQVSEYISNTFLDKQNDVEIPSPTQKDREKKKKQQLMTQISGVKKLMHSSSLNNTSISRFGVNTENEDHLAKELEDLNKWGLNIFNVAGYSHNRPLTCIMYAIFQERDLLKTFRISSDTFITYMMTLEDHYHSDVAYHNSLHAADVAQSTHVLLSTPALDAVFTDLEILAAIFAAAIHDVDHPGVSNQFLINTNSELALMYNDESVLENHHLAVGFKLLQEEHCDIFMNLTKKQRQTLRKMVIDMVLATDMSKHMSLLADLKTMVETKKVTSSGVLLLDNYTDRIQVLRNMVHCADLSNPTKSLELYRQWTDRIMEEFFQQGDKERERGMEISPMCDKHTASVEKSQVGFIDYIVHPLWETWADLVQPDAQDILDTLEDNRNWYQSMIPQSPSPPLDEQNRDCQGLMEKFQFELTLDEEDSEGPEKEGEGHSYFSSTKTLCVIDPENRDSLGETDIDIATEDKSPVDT
cGMP-inhibited 3',5'-cyclic phosphodiesterase 3A, sequence (Q14432 whole entry): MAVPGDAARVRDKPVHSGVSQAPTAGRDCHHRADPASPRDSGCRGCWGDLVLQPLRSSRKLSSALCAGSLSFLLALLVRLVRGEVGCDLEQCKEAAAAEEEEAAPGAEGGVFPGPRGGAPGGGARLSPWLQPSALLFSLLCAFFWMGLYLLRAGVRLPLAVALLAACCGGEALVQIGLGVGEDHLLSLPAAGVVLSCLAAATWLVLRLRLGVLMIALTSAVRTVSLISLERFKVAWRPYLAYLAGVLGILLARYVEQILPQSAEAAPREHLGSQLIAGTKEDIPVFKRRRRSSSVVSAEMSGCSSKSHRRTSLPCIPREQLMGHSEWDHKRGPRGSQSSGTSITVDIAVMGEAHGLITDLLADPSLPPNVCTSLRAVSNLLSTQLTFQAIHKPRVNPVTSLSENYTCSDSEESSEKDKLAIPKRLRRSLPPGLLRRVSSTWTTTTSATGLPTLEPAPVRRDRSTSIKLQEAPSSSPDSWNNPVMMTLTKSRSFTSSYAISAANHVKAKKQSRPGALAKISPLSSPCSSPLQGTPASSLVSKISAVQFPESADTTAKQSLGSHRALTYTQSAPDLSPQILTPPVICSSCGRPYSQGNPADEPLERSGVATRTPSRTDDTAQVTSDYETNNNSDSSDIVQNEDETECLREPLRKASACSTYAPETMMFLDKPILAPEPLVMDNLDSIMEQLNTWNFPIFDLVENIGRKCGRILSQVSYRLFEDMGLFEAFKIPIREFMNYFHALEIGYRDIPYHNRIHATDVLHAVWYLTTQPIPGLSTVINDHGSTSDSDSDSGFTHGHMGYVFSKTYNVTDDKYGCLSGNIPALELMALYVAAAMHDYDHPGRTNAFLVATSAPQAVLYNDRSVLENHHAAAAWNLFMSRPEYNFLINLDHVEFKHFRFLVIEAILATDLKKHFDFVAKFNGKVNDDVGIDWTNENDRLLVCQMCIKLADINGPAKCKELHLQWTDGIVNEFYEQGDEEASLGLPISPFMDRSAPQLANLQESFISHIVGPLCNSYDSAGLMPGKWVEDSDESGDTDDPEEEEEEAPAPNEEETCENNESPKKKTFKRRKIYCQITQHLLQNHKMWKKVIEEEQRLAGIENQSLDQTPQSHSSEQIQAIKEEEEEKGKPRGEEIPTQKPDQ
High affinity 3',5'-cyclic-AMP phosphodiesterase 7A, sequence (Q13946 whole entry): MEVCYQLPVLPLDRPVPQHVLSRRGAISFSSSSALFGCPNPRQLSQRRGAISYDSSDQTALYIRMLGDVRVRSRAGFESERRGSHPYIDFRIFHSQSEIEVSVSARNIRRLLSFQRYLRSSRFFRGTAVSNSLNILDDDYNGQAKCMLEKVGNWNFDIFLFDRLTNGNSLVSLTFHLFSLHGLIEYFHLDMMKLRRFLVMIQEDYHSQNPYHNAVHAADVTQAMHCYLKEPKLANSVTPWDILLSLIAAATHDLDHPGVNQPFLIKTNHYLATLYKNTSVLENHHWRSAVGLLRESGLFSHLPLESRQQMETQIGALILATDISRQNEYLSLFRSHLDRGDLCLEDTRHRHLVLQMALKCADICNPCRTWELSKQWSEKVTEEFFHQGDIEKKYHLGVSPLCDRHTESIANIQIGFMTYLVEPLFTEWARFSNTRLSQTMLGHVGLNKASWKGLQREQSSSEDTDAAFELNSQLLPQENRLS

Regarding `CCn1c(Nc2cccnc2)nc2ccsc2c1=O`, the pIC50 in data set [1] was below 6.00. Moreover, in data set [2], the solubility amounted to 41.6 µg/mL (≈ 153 µM).

As for `CCn1c(Nc2ccncc2F)nc2c(C#N)csc2c1=O`, the pIC50 is 6.17 in data set [3] and 7.60 in data set [1]. This molecule showed a solubility in data set [2] of 3.5 µg/mL (≈ 11.1 µM).

`CCn1c(Nc2ccccc2C#N)nc2ccsc2c1=O` had a pIC50 in data set [1] of 5.64. Also, the solubility in data set [2] was 0.4 µg/mL (≈ 1.35 µM).

`CCn1c(Nc2ccncc2F)nc2c(C3CCCN(C(=O)OC)C3)csc2c1=O` (stereo not given): the pIC50 in data set [3] was 6.55; in data set [4], 6.28; in data set [5] it was 7.54; in data set [1] it was 9.17; with Lymphocyte it was 6.80. This molecule came in with a solubility in data set [2] of 48.9 µg/mL (≈ 113 µM).

`CCn1c(Nc2ccccc2F)nc2ccsc2c1=O`: the pIC50 in data set [3] was 5.57; in data set [1], 7.21. In data set [2], this molecule gave a solubility of 26.1 µg/mL (≈ 90.2 µM).

Regarding `CCn1c(Nc2ccncc2F)nc2ccsc2c1=O`, the values for the pIC50 in data set [3] and in data set [1] were 5.28 and 7.22, respectively. The molecule further gave a solubility in data set [2] of 120 µg/mL (≈ 413 µM).

Consider `CCn1c(Nc2ccncc2F)nc2c(C(C)O)csc2c1=O` (stereo not given), for which the pIC50 is 6.21 in data set [3], 8.06 in data set [1] and 5.77 in the data set with Lymphocyte. Besides, the solubility in data set [2] came to 5.4 µg/mL (≈ 16.1 µM).

In the case of `CCn1c(Nc2ccncc2F)nc2c(C3CCCN(C(=O)C(C)(C)CO)C3)csc2c1=O` (stereo not given), the pIC50 in data set [3] is 6.74; in data set [4], below 5.00; in data set [5], 7.43; in data set [1] it was 8.92; with Lymphocyte, 6.89. This molecule also had a solubility in data set [2] of 22.7 µg/mL (≈ 47.9 µM).

`CCn1c(Nc2ccc(C)cc2)nc2ccsc2c1=O` gave a pIC50 in data set [1] below 6.00. In data set [2], this molecule yielded a solubility of 84 µg/mL (≈ 294 µM).

Take `CCn1c(Nc2ccccc2)nc2ccsc2c1=O`: the pIC50 in data set [3] was 5.13; in data set [1], 6.54. Besides, the concentration in solution in data set [2] (solubility) came to 19.5 µg/mL (≈ 71.9 µM).

As to `CCn1c(Nc2ccncc2F)nc2c(C3CCCN(C(=O)C4(C#N)CC4)C3)csc2c1=O` (stereo not given), the pIC50 in data set [3] was 7.70; in data set [4], 5.54; in data set [5], 7.77; in data set [1], 9.49; in the data set with Lymphocyte, above 7.00. The same molecule had a solubility in data set [2] of 28.1 µg/mL (≈ 60.2 µM).

Regarding `CCn1c(Nc2ccccc2C)nc2ccsc2c1=O`, the pIC50 in data set [3] was 5.37; in data set [1], 7.06. In data set [2], this molecule returned a solubility of 10.1 µg/mL (≈ 35.4 µM).

For `CCn1c(Nc2ccncc2F)nc2c(CCCO)csc2c1=O`, the pIC50 in data set [3] was 6.74; in data set [1], 8.41; in the data set on Lymphocyte it was 6.32. Moreover, the concentration in solution in data set [2] (solubility) was 31.3 µg/mL (≈ 89.8 µM).

On to `CCc1ccccc1Nc1nc2ccsc2c(=O)n1CC`, for which the pIC50 in data set [1] is below 6.00. In data set [2], this molecule registered a solubility of 1.9 µg/mL (≈ 6.35 µM).

For the molecule `CCn1c(Nc2ccncc2)nc2ccsc2c1=O`, the figures for the pIC50 in data set [3] and in data set [1] were 4.52 and 6.20, respectively. The molecule further returned a solubility in data set [2] of 111 µg/mL (≈ 408 µM).

`CCn1c(NC2CCCC2)nc2ccsc2c1=O` yielded a solubility in data set [2] of 12.1 µg/mL (≈ 45.9 µM).

Molecule `CCn1c(Nc2cccc(C)c2)nc2ccsc2c1=O` had a pIC50 in data set [1] below 6.00. Besides, the concentration in solution in data set [2] (solubility) came to 65.5 µg/mL (≈ 230 µM).

Take `CCn1c(Nc2ccccc2Cl)nc2ccsc2c1=O`: the results for the pIC50 in data set [3] and in data set [1] were 5.52 and 7.39, respectively. Moreover, the solubility in data set [2] worked out at 6.3 µg/mL (≈ 20.6 µM).

`CCn1c(Nc2ccncc2F)nc2c(C3CCN(C(=O)OC)CC3)csc2c1=O`: the negative-log IC50 (pIC50) in data set [3] was 6.51; in data set [1] it was 8.96. In addition, in data set [2], the solubility worked out at 0.9 µg/mL (≈ 2.09 µM).

Consider `CCn1c(Nc2ccncc2F)nc2c(C(C)(C)O)csc2c1=O`, for which the pIC50 in data set [3] is 7.25; in data set [1] it was 8.68; in the data set on Lymphocyte, 6.59. For the same molecule, the solubility in data set [2] came to 17.9 µg/mL (≈ 51.4 µM).
